# Test results published in patent publication US20190269129A1, “COMPOSITION CONTAINING 1,2-DIBROMO-2,4-DICYANOBUTANE (DBDCB) AND ZINC PYRITHIONE (ZPT)” (LANXESS Deutschland GmbH, priority 2014, published 2019).
# Columns and labels:
# Assay type in all cases: cell-based
# Settings in all cases: for Activity of the biocides determined 1 week after germ addition, week 1: week 1, polymer emulsion pH 6.5; for Activity of the biocides determined 1 week after germ addition, week 2: week 2, polymer emulsion pH 6.5; for Activity of the biocides determined 1 week after germ addition, week 3: week 3, polymer emulsion pH 6.5; for Activity of the biocides determined 1 week after germ addition, week 4: week 4, polymer emulsion pH 6.5; for Activity of the biocides determined 1 week after germ addition, week 5: week 5, polymer emulsion pH 6.5; for Activity of the biocides determined 1 week after germ addition, week 6: week 6, polymer emulsion pH 6.5
# [1] = test system: Bacteria: Escherichia coli, Pseudomonas aeruginosa and Staphylococcus aureus; assay: Microbiological stress test, preservation of a polymer emulsion: bacteria
# Description: (§1) The preserving effect of an inventive composition comprising DBDCB and ZPT in a polymer emulsion (acrylate-based, pH=6.5) was investigated using a microbiological stress test. The microbiological stress test examines the susceptibility of water-based systems to microbial attack and the effect of preservatives. To this end, the preservatives are incorporated in defined concentrations into the water-based systems. […] Having knowledge of the microorganism populations prevalent in polymer emulsions and dispersions the experiment employed a mixture of the following microorganism types for testing: Bacteria: Escherichia coli, Pseudomonas aeruginosa and Staphylococcus aureus.
# [2] = test system: Molds: Acremonium strictum, Aspergillus niger and Geotrichum candidu; assay: Microbiological stress test, preservation of a polymer emulsion: molds
# Description: as §1, with “Molds: Acremonium strictum, Aspergillus niger” for “Bacteria: Escherichia coli, Pseudomonas aeruginosa”, “Geotrichum candidu.” for “Staphylococcus aureus.”
# [3] = test system: Yeasts: Candida albicans and Rhodotorula rubra; assay: Microbiological stress test, preservation of a polymer emulsion: yeasts
# Description: as §1, with “Yeasts: Candida albicans” for “Bacteria: Escherichia coli, Pseudomonas aeruginosa”, “Rhodotorula rubra.” for “Staphylococcus aureus.”
compound,measurement,setting,value
"N#CCCC(Br)(C#N)CBr (stereo not drawn) [DBDCB, 1,2-Dibromo-2,4-dicyanobutane]","Activity of the biocides determined 1 week after germ addition, week 1",[1]; 0.025 wt % biocide added,0 (no reduction or only a minor reduction of the microbe level is observed (residual level of at least 10^5 bacteria/10^4 mold/yeast cells per g) (score of 0=poor))
same,"Activity of the biocides determined 1 week after germ addition, week 2",[1]; 0.025 wt % biocide added,0 (no reduction or only a minor reduction of the microbe level is observed (residual level of at least 10^5 bacteria/10^4 mold/yeast cells per g) (score of 0=poor))
same,"Activity of the biocides determined 1 week after germ addition, week 3",[1]; 0.025 wt % biocide added,0 (no reduction or only a minor reduction of the microbe level is observed (residual level of at least 10^5 bacteria/10^4 mold/yeast cells per g) (score of 0=poor))
same,"Activity of the biocides determined 1 week after germ addition, week 4",[1]; 0.025 wt % biocide added,0 (no reduction or only a minor reduction of the microbe level is observed (residual level of at least 10^5 bacteria/10^4 mold/yeast cells per g) (score of 0=poor))
same,"Activity of the biocides determined 1 week after germ addition, week 5",[1]; 0.025 wt % biocide added,0 (no reduction or only a minor reduction of the microbe level is observed (residual level of at least 10^5 bacteria/10^4 mold/yeast cells per g) (score of 0=poor))
same,"Activity of the biocides determined 1 week after germ addition, week 6",[1]; 0.025 wt % biocide added,0 (no reduction or only a minor reduction of the microbe level is observed (residual level of at least 10^5 bacteria/10^4 mold/yeast cells per g) (score of 0=poor))
same,"Activity of the biocides determined 1 week after germ addition, week 1",[1]; 0.05 wt % biocide added,0 (no reduction or only a minor reduction of the microbe level is observed (residual level of at least 10^5 bacteria/10^4 mold/yeast cells per g) (score of 0=poor))
same,"Activity of the biocides determined 1 week after germ addition, week 2",[1]; 0.05 wt % biocide added,0 (no reduction or only a minor reduction of the microbe level is observed (residual level of at least 10^5 bacteria/10^4 mold/yeast cells per g) (score of 0=poor))
same,"Activity of the biocides determined 1 week after germ addition, week 3",[1]; 0.05 wt % biocide added,0 (no reduction or only a minor reduction of the microbe level is observed (residual level of at least 10^5 bacteria/10^4 mold/yeast cells per g) (score of 0=poor))
same,"Activity of the biocides determined 1 week after germ addition, week 4",[1]; 0.05 wt % biocide added,0 (no reduction or only a minor reduction of the microbe level is observed (residual level of at least 10^5 bacteria/10^4 mold/yeast cells per g) (score of 0=poor))
same,"Activity of the biocides determined 1 week after germ addition, week 5",[1]; 0.05 wt % biocide added,0 (no reduction or only a minor reduction of the microbe level is observed (residual level of at least 10^5 bacteria/10^4 mold/yeast cells per g) (score of 0=poor))
same,"Activity of the biocides determined 1 week after germ addition, week 6",[1]; 0.05 wt % biocide added,0 (no reduction or only a minor reduction of the microbe level is observed (residual level of at least 10^5 bacteria/10^4 mold/yeast cells per g) (score of 0=poor))
same,"Activity of the biocides determined 1 week after germ addition, week 1",[2]; 0.025 wt % biocide added,0 (no reduction or only a minor reduction of the microbe level is observed (residual level of at least 10^5 bacteria/10^4 mold/yeast cells per g) (score of 0=poor))
same,"Activity of the biocides determined 1 week after germ addition, week 2",[2]; 0.025 wt % biocide added,0 (no reduction or only a minor reduction of the microbe level is observed (residual level of at least 10^5 bacteria/10^4 mold/yeast cells per g) (score of 0=poor))
same,"Activity of the biocides determined 1 week after germ addition, week 3",[2]; 0.025 wt % biocide added,0 (no reduction or only a minor reduction of the microbe level is observed (residual level of at least 10^5 bacteria/10^4 mold/yeast cells per g) (score of 0=poor))
same,"Activity of the biocides determined 1 week after germ addition, week 4",[2]; 0.025 wt % biocide added,0 (no reduction or only a minor reduction of the microbe level is observed (residual level of at least 10^5 bacteria/10^4 mold/yeast cells per g) (score of 0=poor))
same,"Activity of the biocides determined 1 week after germ addition, week 5",[2]; 0.025 wt % biocide added,0 (no reduction or only a minor reduction of the microbe level is observed (residual level of at least 10^5 bacteria/10^4 mold/yeast cells per g) (score of 0=poor))
same,"Activity of the biocides determined 1 week after germ addition, week 6",[2]; 0.025 wt % biocide added,0 (no reduction or only a minor reduction of the microbe level is observed (residual level of at least 10^5 bacteria/10^4 mold/yeast cells per g) (score of 0=poor))
same,"Activity of the biocides determined 1 week after germ addition, week 1",[2]; 0.05 wt % biocide added,0 (no reduction or only a minor reduction of the microbe level is observed (residual level of at least 10^5 bacteria/10^4 mold/yeast cells per g) (score of 0=poor))
same,"Activity of the biocides determined 1 week after germ addition, week 2",[2]; 0.05 wt % biocide added,0 (no reduction or only a minor reduction of the microbe level is observed (residual level of at least 10^5 bacteria/10^4 mold/yeast cells per g) (score of 0=poor))
same,"Activity of the biocides determined 1 week after germ addition, week 3",[2]; 0.05 wt % biocide added,0 (no reduction or only a minor reduction of the microbe level is observed (residual level of at least 10^5 bacteria/10^4 mold/yeast cells per g) (score of 0=poor))
same,"Activity of the biocides determined 1 week after germ addition, week 4",[2]; 0.05 wt % biocide added,0 (no reduction or only a minor reduction of the microbe level is observed (residual level of at least 10^5 bacteria/10^4 mold/yeast cells per g) (score of 0=poor))
same,"Activity of the biocides determined 1 week after germ addition, week 5",[2]; 0.05 wt % biocide added,0 (no reduction or only a minor reduction of the microbe level is observed (residual level of at least 10^5 bacteria/10^4 mold/yeast cells per g) (score of 0=poor))
same,"Activity of the biocides determined 1 week after germ addition, week 6",[2]; 0.05 wt % biocide added,0 (no reduction or only a minor reduction of the microbe level is observed (residual level of at least 10^5 bacteria/10^4 mold/yeast cells per g) (score of 0=poor))
same,"Activity of the biocides determined 1 week after germ addition, week 1",[3]; 0.025 wt % biocide added,0 (no reduction or only a minor reduction of the microbe level is observed (residual level of at least 10^5 bacteria/10^4 mold/yeast cells per g) (score of 0=poor))
same,"Activity of the biocides determined 1 week after germ addition, week 2",[3]; 0.025 wt % biocide added,0 (no reduction or only a minor reduction of the microbe level is observed (residual level of at least 10^5 bacteria/10^4 mold/yeast cells per g) (score of 0=poor))
same,"Activity of the biocides determined 1 week after germ addition, week 3",[3]; 0.025 wt % biocide added,0 (no reduction or only a minor reduction of the microbe level is observed (residual level of at least 10^5 bacteria/10^4 mold/yeast cells per g) (score of 0=poor))
same,"Activity of the biocides determined 1 week after germ addition, week 4",[3]; 0.025 wt % biocide added,0 (no reduction or only a minor reduction of the microbe level is observed (residual level of at least 10^5 bacteria/10^4 mold/yeast cells per g) (score of 0=poor))
same,"Activity of the biocides determined 1 week after germ addition, week 5",[3]; 0.025 wt % biocide added,0 (no reduction or only a minor reduction of the microbe level is observed (residual level of at least 10^5 bacteria/10^4 mold/yeast cells per g) (score of 0=poor))
same,"Activity of the biocides determined 1 week after germ addition, week 6",[3]; 0.025 wt % biocide added,0 (no reduction or only a minor reduction of the microbe level is observed (residual level of at least 10^5 bacteria/10^4 mold/yeast cells per g) (score of 0=poor))
same,"Activity of the biocides determined 1 week after germ addition, week 1",[3]; 0.05 wt % biocide added,0 (no reduction or only a minor reduction of the microbe level is observed (residual level of at least 10^5 bacteria/10^4 mold/yeast cells per g) (score of 0=poor))
same,"Activity of the biocides determined 1 week after germ addition, week 2",[3]; 0.05 wt % biocide added,0 (no reduction or only a minor reduction of the microbe level is observed (residual level of at least 10^5 bacteria/10^4 mold/yeast cells per g) (score of 0=poor))
same,"Activity of the biocides determined 1 week after germ addition, week 3",[3]; 0.05 wt % biocide added,0 (no reduction or only a minor reduction of the microbe level is observed (residual level of at least 10^5 bacteria/10^4 mold/yeast cells per g) (score of 0=poor))
same,"Activity of the biocides determined 1 week after germ addition, week 4",[3]; 0.05 wt % biocide added,0 (no reduction or only a minor reduction of the microbe level is observed (residual level of at least 10^5 bacteria/10^4 mold/yeast cells per g) (score of 0=poor))
same,"Activity of the biocides determined 1 week after germ addition, week 5",[3]; 0.05 wt % biocide added,0 (no reduction or only a minor reduction of the microbe level is observed (residual level of at least 10^5 bacteria/10^4 mold/yeast cells per g) (score of 0=poor))
same,"Activity of the biocides determined 1 week after germ addition, week 6",[3]; 0.05 wt % biocide added,0 (no reduction or only a minor reduction of the microbe level is observed (residual level of at least 10^5 bacteria/10^4 mold/yeast cells per g) (score of 0=poor))
